Measurements reported in patent US20240270809A1, “ORAL GLP RECEPTOR AGONISTS” (priority 2020, published 2024).
Positions of bridges follow the written chain, without caps; N, C: chain ends. Non-standard residues stand in square brackets, D forms with d. Residues, ends and D or L forms follow the SMILES beside them. *: point of attachment. Malonyl(2,2-Me2,histaminyl) = CC(C)(C(=O)NCCc1cnc[nH]1)C(=O)*; Ala(1H-tetrazol-5-yl) = N[C@@H](Cc1nnn[nH]1)C(=O)O; αMePhe(2-F) = C[C@](N)(Cc1ccccc1F)C(=O)O; αMeL = CC(C)C[C@](C)(N)C(=O)O; Nle = CCCC[C@H](N)C(=O)O; Aib = CC(C)(N)C(=O)O

Columns and labels:
Format in all cases: cell-based
human GLP2 receptor = molecular target: T1, human GLP2 receptor (Homo sapiens, UniProt O95838); assay: cAMP accumulation assay, functional agonism of human GLP2 receptor; settings: HEK cells infected with human GLP2 receptor BacMam virus, HTRF cAMP; for Emax: HEK293, read-out: Human GLP-2R agonist cAMP Emax; for EC50: read-out: Human GLP-2R agonist cAMP pEC50 (converted)
T1 construct: expressed in transfected cells; host or cells: HEK cells, BacMam virus transduction
T1 sequence (O95838 1-553): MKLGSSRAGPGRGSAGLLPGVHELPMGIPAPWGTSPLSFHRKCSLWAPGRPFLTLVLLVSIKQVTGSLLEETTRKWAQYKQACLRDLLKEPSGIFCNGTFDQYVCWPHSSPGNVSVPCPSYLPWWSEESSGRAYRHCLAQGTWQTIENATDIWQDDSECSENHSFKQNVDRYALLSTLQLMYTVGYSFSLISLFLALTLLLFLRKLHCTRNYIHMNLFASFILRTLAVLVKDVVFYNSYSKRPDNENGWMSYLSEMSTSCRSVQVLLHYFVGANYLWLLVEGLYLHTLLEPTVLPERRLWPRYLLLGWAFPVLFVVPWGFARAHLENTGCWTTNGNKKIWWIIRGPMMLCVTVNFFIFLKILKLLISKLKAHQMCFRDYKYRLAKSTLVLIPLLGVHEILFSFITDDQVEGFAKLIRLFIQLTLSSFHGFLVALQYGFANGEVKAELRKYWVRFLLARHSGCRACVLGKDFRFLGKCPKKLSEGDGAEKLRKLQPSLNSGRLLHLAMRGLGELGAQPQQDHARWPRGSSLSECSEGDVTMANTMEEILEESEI
Method in brief: (§1)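 Steps: infect HEK cells with human GLP1 or GLP2 receptor BacMam for 24 hours; freeze; resuspend in HBSS with 0.5 mM IBMX; incubate with agonist 45 min at 37° C; lyse with HTRF detection reagents and read cAMP.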

human GLP1 receptor = molecular target: T2, human GLP1 receptor (Homo sapiens, UniProt P43220); assay: cAMP accumulation assay, functional agonism of human GLP1 receptor; settings: HEK cells infected with human GLP1 receptor BacMam virus, HTRF cAMP; for Emax: HEK293, read-out: Human GLP-1R agonist cAMP Emax; for EC50: read-out: Human GLP-1R agonist cAMP pEC50 (converted)
T2 construct: expressed in transfected cells; host or cells: HEK cells, BacMam virus transduction
Method in brief: as §1

mouse GLP2 receptor = molecular target: T3, mouse GLP2 receptor (Mus musculus, UniProt Q5IXF8); assay: cAMP accumulation assay, functional agonism of mouse GLP2 receptor; settings: HEK cells transiently transfected with mouse GLP2 receptor, HTRF cAMP; for Emax: HEK293, read-out: Mouse GLP-2R agonist cAMP Emax; for EC50: read-out: Mouse GLP-2R agonist cAMP pEC50 (converted)
T3 construct: expressed in transfected cells; host or cells: HEK cells, transient transfection with GeneJuice
T3 sequence (Q5IXF8 1-512): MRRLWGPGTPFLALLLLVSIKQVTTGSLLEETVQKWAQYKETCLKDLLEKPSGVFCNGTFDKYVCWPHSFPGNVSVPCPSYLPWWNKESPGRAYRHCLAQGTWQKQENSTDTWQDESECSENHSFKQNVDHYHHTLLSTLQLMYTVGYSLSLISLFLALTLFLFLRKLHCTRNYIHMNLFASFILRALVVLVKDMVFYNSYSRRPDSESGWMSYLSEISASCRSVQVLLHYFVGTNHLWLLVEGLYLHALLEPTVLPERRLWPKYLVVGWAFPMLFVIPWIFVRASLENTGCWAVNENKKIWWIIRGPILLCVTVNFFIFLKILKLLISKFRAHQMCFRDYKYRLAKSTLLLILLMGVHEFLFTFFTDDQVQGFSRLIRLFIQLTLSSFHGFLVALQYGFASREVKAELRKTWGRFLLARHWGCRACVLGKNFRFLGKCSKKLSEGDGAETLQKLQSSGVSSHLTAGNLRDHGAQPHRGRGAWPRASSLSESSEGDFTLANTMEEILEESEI
Method: CAMP production upon agonist stimulation of mouse GLP2 or GLP1 receptors was assessed utilizing HiRange cAMP kit (Cisbio). In brief, HEK cells were transiently transfected for 24 hours with cDNA using GeneJuice Transfection reagent (EMD Millipore) and frozen at −80° C. for later use in the assay. On the day, various concentrations of compounds were dispensed using ECHO-555 (LabCyte) to a total volume of 100 nl into a low volume 384-well Proxi plate (Perkin Elmer) followed by addition of 10 μl of cell suspension delivering 8000 cells per well. Cells were prepared in the assay buffer (HBSS (Lonza) supplemented with 0.5 mM IBMX (Tocris)). After 45 min incubation at 37° C., the reaction was stopped by addition of the HTRF detection reagents in the lysis buffer provided in the kit. Following 1-hour incubation at RT, plates were read on Pherastar FS (BMG Labtech, Inc.) using standard HTRF settings. Dotmatics Studies software was used for calculation of pEC50 values by fitting data to a four-parameter concentration response curve.

T2 sequence (P43220 24-463): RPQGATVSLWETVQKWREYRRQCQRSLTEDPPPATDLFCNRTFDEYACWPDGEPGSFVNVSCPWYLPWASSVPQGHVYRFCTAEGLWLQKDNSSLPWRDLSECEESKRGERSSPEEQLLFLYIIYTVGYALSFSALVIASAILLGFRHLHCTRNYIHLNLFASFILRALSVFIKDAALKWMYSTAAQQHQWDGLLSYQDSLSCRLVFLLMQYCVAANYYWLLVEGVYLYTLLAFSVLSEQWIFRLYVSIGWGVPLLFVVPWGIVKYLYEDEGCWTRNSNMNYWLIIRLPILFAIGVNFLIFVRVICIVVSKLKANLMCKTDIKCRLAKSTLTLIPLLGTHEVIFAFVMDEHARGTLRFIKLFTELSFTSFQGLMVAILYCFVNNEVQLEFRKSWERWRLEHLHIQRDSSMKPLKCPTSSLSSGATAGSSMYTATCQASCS

Structure (SMILES) | Emax (human GLP2 receptor) [%] | EC50 (human GLP2 receptor) [nM] | Emax (human GLP1 receptor) [%] | EC50 (human GLP1 receptor) [nM] | Emax (mouse GLP2 receptor) [%] | EC50 (mouse GLP2 receptor) [nM]
CCCC[C@H](NC(=O)[C@H](CCC(=O)O)NC(=O)[C@@H]1CC(=O)NCCCC[C@H](NC(=O)[C@H](CC(=O)O)NC(=O)C(C)(C)NC(=O)[C@@H](N)Cc2c[nH]cn2)C(=O)N[C@@H](CO)C(=O)N[C@@](C)(Cc2ccccc2F)C(=O)N[C@@H](CO)C(=O)N1)C(=O)N[C@H](Cc1ccccc1)C(=O)N[C@H](C(=O)N[C@@](C)(CC(C)C)C(=O)N[C@@H](CC(C)C)C(=O)N[C@@H](CC(=O)O)C(=O)N[C@H]1CCC(=O)NCCCC[C@@H](C(=O)N[C@@H](CC(=O)O)C(=O)N[C@@H](Cc2ccccc2)C(=O)N[C@H](C(=O)N[C@H]2CCC(=O)NCCCC[C@@H](C(=O)N[C@H]3CCC(=O)NCCCC[C@@H](C(N)=O)NC(=O)[C@H]([C@@H](C)O)NC(=O)[C@H]([C@@H](C)CC)NC(=O)[C@H](CCCCN)NC3=O)NC(=O)[C@H]([C@@H](C)CC)NC(=O)[C@H](CC(C)C)NC(=O)[C@H](Cc3c[nH]c4ccccc34)NC2=O)[C@@H](C)CC)NC(=O)[C@H](C)NC(=O)[C@H](C)NC(=O)[C@H](CCCCN)NC1=O)[C@@H](C)O [Example 64] (H-H[Aib]DKS[αMePhe(2-F)]SDE[Nle][dF]T[αMeL]LDEKAAKDFIEWLIKEKITK-NH2; lactam 4-8, 16-20, 24-28, 29-33; N-terminus and C-terminus assumed) | 104 | 0.0398 | 98 | 0.0251 | 99.7 | 2
CCCC[C@H](NC(=O)[C@H](CCC(=O)O)NC(=O)[C@@H]1CCCCNC(=O)CC[C@H](NC(=O)[C@H](CC(=O)O)NC(=O)C(C)(C)NC(=O)[C@@H](N)Cc2c[nH]cn2)C(=O)N[C@@H](CO)C(=O)N[C@@H](Cc2ccccc2)C(=O)N[C@@H](CO)C(=O)N1)C(=O)N[C@H](Cc1ccccc1)C(=O)N[C@H]1CCC(=O)NCCCC[C@@H](C(=O)N[C@H]2CCCCNC(=O)C[C@@H](C(=O)N[C@@H](Cc3ccccc3)C(=O)N[C@H](C(=O)N[C@H]3CCC(=O)NCCCC[C@@H](C(=O)N[C@H]4CCCCNC(=O)CC[C@@H](C(N)=O)NC(=O)[C@H]([C@@H](C)O)NC(=O)[C@H]([C@@H](C)CC)NC(=O)[C@H](CCCCN)NC4=O)NC(=O)[C@H]([C@@H](C)CC)NC(=O)[C@H](CC(C)C)NC(=O)[C@H](Cc4c[nH]c5ccccc45)NC3=O)[C@@H](C)CC)NC(=O)[C@H](CCCCN)NC(=O)[C@H](C)NC(=O)[C@H](C)NC2=O)NC(=O)[C@H](CC(=O)O)NC(=O)[C@H](CC(C)C)NC(=O)[C@H]([C@@H](C)CC)NC1=O [Example 75] (H-H[Aib]DESFSKE[Nle][dF]EILDKKAAKDFIEWLIKKKITE-NH2; lactam 4-8, 12-16, 17-21, 24-28, 29-33 (inferred); C-terminus assumed) | 102 | 0.0398 | 95 | 0.631 | 81.9 | 6.31
CCCC[C@H](NC(=O)[C@H](CCC(=O)O)NC(=O)[C@H](CC(=O)O)NC(=O)[C@H](CO)NC(=O)[C@](C)(Cc1ccccc1F)NC(=O)[C@H](CO)NC(=O)CNC(=O)[C@H](Cc1nn[nH]n1)NC(=O)C(C)(C)C(=O)NCCc1c[nH]cn1)C(=O)N[C@H](Cc1ccccc1)C(=O)N[C@H]1CCC(=O)NCCCC[C@@H](C(=O)N[C@H]2CCCCNC(=O)C[C@@H](C(=O)N[C@@H](Cc3ccccc3)C(=O)N[C@H](C(=O)N[C@H]3CCC(=O)NCCCC[C@@H](C(=O)N[C@H]4CCCCNC(=O)CC[C@@H](C(N)=O)NC(=O)[C@H]([C@@H](C)O)NC(=O)[C@H]([C@@H](C)CC)NC(=O)[C@H](CCCCN)NC4=O)NC(=O)[C@H]([C@@H](C)CC)NC(=O)[C@H](CC(C)C)NC(=O)[C@H](Cc4c[nH]c5ccccc45)NC3=O)[C@@H](C)CC)NC(=O)[C@H](CCCCN)NC(=O)[C@H](C)NC(=O)[C@H](C)NC2=O)NC(=O)[C@H](CC(=O)O)NC(=O)[C@H](CC(C)C)NC(=O)[C@H]([C@@H](C)CC)NC1=O [Example 53] ({Malonyl(2,2-Me2,histaminyl)}-[Ala(1H-tetrazol-5-yl)]GS[αMePhe(2-F)]SDE[Nle][dF]EILDKKAAKDFIEWLIKKKITE-NH2; lactam 10-14, 15-19, 22-26, 27-31; C-terminus assumed) | 102 | 0.02 | 99.5 | 0.00501 | 103 | 0.631
CCCC[C@H](NC(=O)[C@H](CCC(=O)O)NC(=O)[C@@H]1CC(=O)NCCCC[C@H](NC(=O)[C@H](CC(=O)O)NC(=O)C(C)(C)C(=O)NCCc2c[nH]cn2)C(=O)N[C@@H](CO)C(=O)N[C@@](C)(Cc2ccccc2F)C(=O)N[C@@H](CO)C(=O)N1)C(=O)N[C@H](Cc1ccccc1)C(=O)N[C@H](C(=O)N[C@@](C)(CC(C)C)C(=O)N[C@@H](CC(C)C)C(=O)N[C@@H](CC(=O)O)C(=O)N[C@H]1CCC(=O)NCCCC[C@@H](C(=O)N[C@@H](CC(=O)O)C(=O)N[C@@H](Cc2ccccc2)C(=O)N[C@H](C(=O)N[C@H]2CCC(=O)NCCCC[C@@H](C(=O)N[C@H]3CCC(=O)NCCCC[C@@H](C(N)=O)NC(=O)[C@H]([C@@H](C)O)NC(=O)[C@H]([C@@H](C)CC)NC(=O)[C@H](CCCCN)NC3=O)NC(=O)[C@H]([C@@H](C)CC)NC(=O)[C@H](CC(C)C)NC(=O)[C@H](Cc3c[nH]c4ccccc34)NC2=O)[C@@H](C)CC)NC(=O)[C@H](C)NC(=O)[C@H](C)NC(=O)[C@H](CCCCN)NC1=O)[C@@H](C)O [Example 65] ({Malonyl(2,2-Me2,histaminyl)}-DKS[αMePhe(2-F)]SDE[Nle][dF]T[αMeL]LDEKAAKDFIEWLIKEKITK-NH2; lactam 2-6, 14-18, 22-26, 27-31 (inferred); C-terminus assumed) | 102 | 0.0398 | 97.9 | 0.0398 | 86.3 | 6.31
CCCC[C@H](NC(=O)[C@H](CCC(=O)O)NC(=O)[C@@H]1CCCCNC(=O)CC[C@H](NC(=O)[C@H](Cc2nn[nH]n2)NC(=O)C(C)(C)C(=O)NCCc2c[nH]cn2)C(=O)N[C@@H](CO)C(=O)N[C@@H](Cc2ccccc2)C(=O)N[C@@H](CO)C(=O)N1)C(=O)N[C@H](Cc1ccccc1)C(=O)N[C@H]1CCC(=O)NCCCC[C@@H](C(=O)N[C@H]2CCCCNC(=O)C[C@@H](C(=O)N[C@@H](Cc3ccccc3)C(=O)N[C@H](C(=O)N[C@H]3CCC(=O)NCCCC[C@@H](C(=O)N[C@H]4CCCCNC(=O)CC[C@@H](C(N)=O)NC(=O)[C@H]([C@@H](C)O)NC(=O)[C@H]([C@@H](C)CC)NC(=O)[C@H](CCCCN)NC4=O)NC(=O)[C@H]([C@@H](C)CC)NC(=O)[C@H](CC(C)C)NC(=O)[C@H](Cc4c[nH]c5ccccc45)NC3=O)[C@@H](C)CC)NC(=O)[C@H](CCCCN)NC(=O)[C@H](C)NC(=O)[C@H](C)NC2=O)NC(=O)[C@H](CC(=O)O)NC(=O)[C@H](CC(C)C)NC(=O)[C@H]([C@@H](C)CC)NC1=O [Example 79] ({Malonyl(2,2-Me2,histaminyl)}-[Ala(1H-tetrazol-5-yl)]ESFSKE[Nle][dF]EILDKKAAKDFIEWLIKKKITE-NH2; lactam 2-6, 10-14, 15-19, 22-26, 27-31 (inferred); C-terminus assumed) | 103 | 0.0316 | 97.3 | 0.251 | 74.2 | 3.16
